According to patent US10031142B2, “In situ chemiluminescent substrates and assays” (Life Technologies Corporation, priority 2010, dated 2018):
Read-outs that look alike come from different tables or passages of the source.

Legend:
[1] = Thermal stability of aqueous solutions of reagents; assay type: physicochemical
From the text: The thermal stabilities of aqueous solutions AMPPD®, AMPPD enol ether phosphate (AMPPD-EE) and AMPPD-EE in the presence of Na2MoO4 were examined.

alkaline phosphatase [2] = conditions: TBQ, 37° C., 25 minutes
Experimental: The following reagents were used for this: • 0.1M aminomethylpropanol buffer, pH 9.5 (AMP Buffer), • CDP-Star® (CDP*, Life Technologies): 6.2 mg/mL (12.5 mM) in AMP Buffer, • ADP-Star® (ADP*, Life Technologies): 1 mg/mL (2.2 mM) in 0.1M AMP Buffer, • ADP*-EE Oxidation mixture: 1 mg/mL (2.3 mM) in 0.1M AMP Buffer, • TBQ: 10× Sapphire II™ chemiluminescence enhancer (Life Technologies), and • Alkaline Phosphatase stock (AP): 8 ng/mL (from 17.4 mg/mL concentrate).
10 μL ADP* or ADP*-EE Oxidation mixture (0.22 or 0.23 mM, respectively), 10 μL TBQ, 80 μL AMP Buffer and 10 μL AP were combined and the luminescence from the mixture was measured continuously at 37° C. for 25 minutes. 1.6 μL CDP* (0.2 mM), 10 μL TBQ, 80 μL AMP Buffer and 10 μL AP were combined and the luminescence from the mixture was measured continuously at 37° C. for 25 minutes.

alkaline phosphatase [3] = system: alkaline phosphatase
From the text: Before developing assay conditions with Method B in situ dioxetane generation, we investigated whether the reagents from the oxidation system adversely affected alkaline phosphatase activity. […] Any quenching effects from a singlet oxygen generation/reaction system may be enzyme-specific, and would have to be evaluated for any enzyme/detection substrate pair.

[4] = cited from earlier work
alkaline phosphatase [5] = conditions: in the presence of Sapphire II enhancer
From the text: Benchmarking experiments compared the light emission (in RLUs) and signal to noise (S:N) of in situ ADP-Star with control dioxetanes CSPD®, ADP-Star®, and CDP-Star®.

## COC1(c2cccc(OP(=O)(O)O)c2)OOC12C1CC3CC(C1)CC2C3 (stereo not drawn) [AMPPD®, reference compound]
[1]; aqueous solution, 40° C.
  thermal half-life: ~40 days
[1]; aqueous solution, 55° C.
  thermal half-life: ~10 days

## COC(=C1C2CC3CC(C2)CC1C3)c1ccc(Cl)c(OP(=O)([O-])[O-])c1.[Na+].[Na+] [ADP-Star enol ether phosphate]
Alkaline phosphatase [2]
  light emission compared with CDP-Star dioxetane control: higher light emission

## COC(=C1C2CC3CC(C2)CC1C3)c1cccc(OP(=O)([O-])[O-])c1.[Na+].[Na+] [AMPPD-EE]
[1]; 1 month, 55° C.
  Stability/Storage Conditions (loss): Minimal loss in 1 month, 55 °C
[1]; aqueous solution, 40° C. over 4+ months
  thermal decomposition: virtually no thermal decomposition
[1]; aqueous solution, 55° C. over 5+ months
  thermal decomposition: minimal thermal decomposition
[1]; in the presence of Na2MoO4 at 40° C.
  thermal decomposition: no thermal decomposition

## OO [hydrogen peroxide]
Alkaline phosphatase [3]
  effect on alkaline phosphatase activity: does not affect alkaline phosphatase activity
[4]; 35% soln, 1 yr, 25° C.
  Stability/Storage Conditions: >99.3% in 1 yr, 25° C.;
[4]; 35% soln, 24 hr, 100° C.
  Stability/Storage Conditions: ≥96.0% in 24 hr, 100 °C

## [Na+].[Na+].[O]=[Mo](=[O])([O-])[O-] [sodium molybdate]
Alkaline phosphatase [3]; AMPPD substrate, TBQ enhancer, 37° C., 30 minutes
  effect on alkaline phosphatase activity: significantly quenches alkaline phosphatase activity
Alkaline phosphatase [3]; AMPPD substrate, various amounts of Na2MoO4 stock, 37° C.
  light reduction (quenching of alkaline phosphatase activity): up to 85%
Alkaline phosphatase [3]; sodium molybdate <1 mM
  alkaline phosphatase activity on lowering concentration: restores most of the alkaline phosphatase activity
[4]; solid
  Stability/Storage Conditions: “Stable under ordinary conditions of use &

## COC1(c2cccc(OP(=O)(O)O)c2)OOC12C1CC3CC2CC(Cl)(C3)C1 (stereo not drawn) [CSPD®]
Alkaline phosphatase [5]
  time reaching glow (maximum light emission): 30 min
